Assays:
[1] = Oral bioavailability and biodistribution of pentamidine salts
Method: In this experiment, HCl, isethionate and tosylate salts of pentamidine were administered orally to mice and their PK and tissue accumulations were compared.
PK parameters for pentamidine salt following oral administration of 200 mg/kg in mice.
Biodistribution of Pentamidine Salts in mice, 24 hours after PO administration of 200 mg/kg.

[2] = test system: chemokines interleukin (IL)-8, GRO alpha and MCP-1; conditions: human whole blood, cited from earlier work
[3] = test system: GalN/LPS-induced liver injury; test: GalN/LPS fulminant liver injury survival study; type: in vivo; conditions: C57BL/6 mice; IP 30 minutes prior GalN/LPS; PENTAMIDINE 40 mpk, Decamidine 10 mpk
Method: In this experiment, the 8-hour survival rate for C57BL/6 mice is evaluated when treated or not with two different aromatic diamidines (pentamidine isethionate(C5) and decamidine isethionate (C10)). Both compounds were administered intraperitoneally at doses close to their MTD 30 minutes prior a GalN/LPS-induced liver injury.

[4] = in vivo; conditions: male, Beagle, dog, liver, iv, 4 mg/kg/day
[5] = in vivo; conditions: female, Fox Chase SCID CB17, mouse, oral
[6] = Repeated oral administration, tissue concentrations in mice; type: in vivo, Female Fox Chase SCID CB17 Mice
Method: In this experiment, mice from all groups were first injected with pentamidine via the IV route on Day 1 (5 mg/kg). Tissue concentrations were assessed 24 hours later (on Day 2), and weekly thereafter (Day 7 and 14) with no subsequent pentamidine administration. Starting on Day 2, groups 2 and 3 were given pentamidine once a day (QD) or twice a day (BID) respectively and tissue levels were measured 24 hours later (Day 3) and weekly thereafter for two weeks.

[7] = mice, 24 hours after PO 200 mg/kg, listed as Penta-Ise, 200 mg/kg
[8] = mice, oral 200 mg/kg, blood, listed as Isethionate salt, 200 mg/kg
[9] = IV 5 mg/kg Day 1, then PO QD or BID

N=C(N)c1ccc(OCCCCCOc2ccc(C(=N)N)cc2)cc1 [pentamidine, pentamidine bis(2-hydroxyethanesulfonate)]
Tissue Concentration Kidney [1, 7]: 5.0 µM | Tissue Concentration Liver [1, 7]: 5.6 µM | Tissue Concentration Lung [1, 7]: 2.7 µM | Tissue Concentration Pancreas [1, 7]: 1.3 µM | F* ([1]; mice, oral 200 mg/kg, based on the iv AUC at 5 mg/kg of 19.08, listed as Isethionate salt): 3.0 | AUCINF [1, 8]: 23.0 µM·h | Cl/F [1, 8]: 255 mL/min/kg | Cmax [1, 8]: 3.06 µM | MRT [1, 8]: 52.8 h | Tmax [1, 8]: 3.33 h | t½ [1, 8]: 44.5 h | AUC ([1]; mouse, in vivo, iv, 5 mg/kg): 19.1 µM·h | PHA-induced generation of IL-6 ([2]; 10 microM): partial inhibition | PHA-induced generation of TNF-alpha, IL-1 beta, IL-2, IL-4, IL-5, IL-10 and IFN-gamma ([2]; 10 microM): no significant inhibitory effect | LPS- and PHA-stimulated whole blood generation of chemokines IL-8, GRO alpha, MCP-1 [2]: dose-dependently suppress | 8-hour survival [3]: 83% | half-life [4]: ~672 h | bioavailability [5]: ~1% | Kidney levels, effect of oral administration [6, 9]: not affected by oral administration | liver concentrations under oral administration regimen [6, 9]: can be maintained to a desired concentration | Kidneys, lung and muscle concentrations, difference between groups with or without PO ([6]; IV 5 mg/kg Day 1, then none, PO QD or PO BID): no significant difference between groups

Source: patent US9375411B2, “Uses and methods for the treatment of liver diseases or conditions” (Verlyx Pharma Inc., priority 2012, dated 2016)
